The text below walks through data of ChEMBL document CHEMBL1201861, “Genomics of Drug Sensitity in Cancer screening data, Wellcome Trust Sanger Institute”.

Type in all cases: functional, cell-based
Assay [1] concerns RL95-2. In words: cells. Conditions: Homo sapiens.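 Note: RL95-2 growth inhibition determined through a cell viability readout.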
Description: SANGER: Inhibition of human RL95-2 cell growth in a cell viability assay.
Assay [2] concerns NCI-H128. The experiment in a line: SANGER: Inhibition of human NCI-H128 cell growth in a cell viability assay.
Assay [3] relates to EW-12. The experiment in a line: SANGER: Inhibition of human EW-12 cell growth in a cell viability assay.
For assay [4], the system named is KP-N-RT-BM-1. In words: SANGER: Inhibition of human KP-N-RT-BM-1 cell growth in a cell viability assay.
For assay [5], the system named is SKM-1. The experiment in a line: SANGER: Inhibition of human SKM-1 cell growth in a cell viability assay.
Assay [6] relates to NCI-H2107. In words: SANGER: Inhibition of human NCI-H2107 cell growth in a cell viability assay.
In assay [7] the test system is CP67-MEL. In words: SANGER: Inhibition of human CP67-MEL cell growth in a cell viability assay.
For assay [8], the system named is TI-73. The experiment in a line: cells. As to conditions: Homo sapiens.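 Note: cell viability assay measuring how much compounds suppress growth of the cultured cell line.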
Description: SANGER: Inhibition of human TI-73 cell growth in a cell viability assay.
For assay [9], the system named is YH-13. In words: cells. Conditions: Homo sapiens.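 Note: cell viability readout of growth suppression in the human YH-13 cell line.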
Description: SANGER: Inhibition of human YH-13 cell growth in a cell viability assay.
Assay [10] deals with TGBC11TKB. In words: cells. As to conditions: Homo sapiens.
Description: SANGER: Inhibition of human TGBC11TKB cell growth in a cell viability assay.
Assay [11] relates to A549. In words: cells. Conditions: Homo sapiens.
Description: SANGER: Inhibition of human A549 cell growth in a cell viability assay.
Assay [12] relates to NCI-H1048. The experiment in a line: cells. As to conditions: Homo sapiens.
Description: SANGER: Inhibition of human NCI-H1048 cell growth in a cell viability assay.
Assay [13] has as its system NCI-H2291. The experiment in a line: cells. Conditions: Homo sapiens.
Description: SANGER: Inhibition of human NCI-H2291 cell growth in a cell viability assay.
The test system of assay [14] is D-566MG. In words: cells. Conditions: Homo sapiens.
Assay [15] relates to EPLC-272H. The experiment in a line: cells. As to conditions: Homo sapiens.
Description: SANGER: Inhibition of human EPLC-272H cell growth in a cell viability assay.
The test system of assay [16] is CHP-134. The experiment in a line: SANGER: Inhibition of human CHP-134 cell growth in a cell viability assay.
Assay [17] relates to CFPAC-1. In words: cells. Conditions: Homo sapiens.
Description: SANGER: Inhibition of human CFPAC-1 cell growth in a cell viability assay.
In assay [18] the test system is H-EMC-SS. The experiment in a line: cells. As to conditions: Homo sapiens.
Description: SANGER: Inhibition of human H-EMC-SS cell growth in a cell viability assay.
In assay [19] the test system is RH-18. The experiment in a line: cells. Conditions: Homo sapiens, Rh18.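 Note: growth inhibition of human RH-18 cells, read out with a cell viability assay.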
Description: SANGER: Inhibition of human RH-18 cell growth in a cell viability assay.
The test system of assay [20] is ECC10. In words: cells. As to conditions: Homo sapiens.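 Note: growth inhibition of ECC10 cells, read out by a cell viability assay.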
Description: SANGER: Inhibition of human ECC10 cell growth in a cell viability assay.
For assay [21], the system named is SW900. In words: cells. As to conditions: Homo sapiens.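 Note: IC50 is the concentration that inhibits SW900 cell growth, measured by a cell viability assay.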
Description: SANGER: Inhibition of human SW900 cell growth in a cell viability assay.
Assay [22] relates to KNS-62. The experiment in a line: cells. As to conditions: Homo sapiens.
Description: SANGER: Inhibition of human KNS-62 cell growth in a cell viability assay.
For assay [23], the system named is ZR-75-30. In words: cells. As to conditions: Homo sapiens.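 Note: growth inhibition of ZR-75-30 cells, measured with a cell viability readout.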
Description: SANGER: Inhibition of human ZR-75-30 cell growth in a cell viability assay.
Assay [24] concerns D-423MG. The experiment in a line: cells. Conditions: Homo sapiens.
Description: SANGER: Inhibition of human D-423MG cell growth in a cell viability assay.
Assay [25] relates to NBsusSR. In words: cells. As to conditions: Homo sapiens.
Description: SANGER: Inhibition of human NBsusSR cell growth in a cell viability assay.
Assay [26] concerns BT-549. In words: cells. As to conditions: Homo sapiens.
Description: SANGER: Inhibition of human BT-549 cell growth in a cell viability assay.
The subject of assay [27] is LU-135. In words: cells. As to conditions: Homo sapiens.
Description: SANGER: Inhibition of human LU-135 cell growth in a cell viability assay.
The subject of assay [28] is BALL-1. The experiment in a line: cells. As to conditions: Homo sapiens.
Description: SANGER: Inhibition of human BALL-1 cell growth in a cell viability assay.
The test system of assay [29] is NCI-H1666. In words: cells. Conditions: Homo sapiens.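 Note: growth inhibition of the cell line, read out with a cell viability assay.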
Description: SANGER: Inhibition of human NCI-H1666 cell growth in a cell viability assay.
Assay [30] deals with NCI-H2029. In words: cells. As to conditions: Homo sapiens.
Description: SANGER: Inhibition of human NCI-H2029 cell growth in a cell viability assay.
The subject of assay [31] is OC-314. In words: cells. Conditions: Homo sapiens.
Description: SANGER: Inhibition of human OC-314 cell growth in a cell viability assay.

For `CCNc1cc(N[C@H]2CC[C@@H](O)CC2)nc(Nc2ccc3c(ccn3Cc3ccccc3)c2)n1`, the IC50 in assay [1] was 3200 nM; in [2] it was greater than 5120 nM; in assay [3], greater than 5120 nM; in assay [4], greater than 5120 nM; in [5], greater than 5120 nM; in assay [6] it was greater than 5120 nM. The compound also yielded an IC50 in assay [7] greater than 5120 nM.
As to `CCCS(=O)(=O)Nc1ccc(F)c(C(=O)c2c[nH]c3ncc(Cl)cc23)c1F` [PLX-4720], the IC50 is 6010 nM in [8]; greater than 10000 nM in [9]; greater than 10000 nM in assay [10]; greater than 10000 nM in assay [11]; greater than 10000 nM in assay [12]; greater than 10000 nM in assay [13]. Further, the IC50 in [14], in [15], in assay [16], in assay [17], in assay [18] and in assay [19] was greater than 10000 nM throughout. The IC50 in assay [20], in assay [21], in [22], in [23], in assay [24] and in [25] was greater than 10000 nM each time. Further, the IC50 in assay [26], in assay [27], in assay [28], in assay [29], in [30] and in assay [31] was greater than 10000 nM throughout.
With `COc1cc(C)c(Sc2cnc(NC(=O)c3ccc(CNC(C)C(C)(C)C)cc3)s2)cc1C(=O)N1CCN(C(C)=O)CC1` (stereo not given), the concentration for half-maximal inhibition (IC50) in assay [1] was 4510 nM; in [2], greater than 10200 nM; in assay [3], greater than 10200 nM; in assay [4] it was greater than 10200 nM; in assay [5], greater than 10200 nM; in [6], greater than 10200 nM. Further, the IC50 in assay [7] was greater than 10200 nM.
For the compound `Cc1nc(Nc2ncc(C(=O)Nc3c(C)cccc3Cl)s2)cc(N2CCN(CCO)CC2)n1` [DASATINIB], the IC50 in assay [1] is 104 nM; in [2], greater than 1280 nM; in [3], greater than 1280 nM; in assay [4], greater than 1280 nM; in assay [5], greater than 1280 nM; in assay [6], greater than 1280 nM. In assay [7], the IC50 was found to be 205 nM.
Take `O=c1cc(N2CCOCC2)oc2c(-c3cccc4c3sc3ccccc34)cccc12`: the IC50 in [8], in assay [9], in assay [10], in assay [11], in assay [12] and in [13] was greater than 2000 nM throughout. The IC50 in assay [14], in [15], in [16], in assay [17], in assay [18] and in [19] was greater than 2000 nM in each case. For the same compound, the IC50 in assay [21] was greater than 2000 nM; in [22], greater than 2000 nM; in assay [23], greater than 2000 nM; in assay [24], 1690 nM; in assay [25], greater than 2000 nM; in assay [26], greater than 2000 nM. Further, the IC50 in assay [27], in assay [28], in assay [29], in assay [30] and in [31] was greater than 2000 nM each time.
Regarding `Cc1n[nH]c2ccc(-c3cncc(OC[C@@H](N)Cc4c[nH]c5ccccc45)c3)cc12` [A-443654], the IC50 in [1] was 22.8 nM; in [2], greater than 1020 nM; in [3], greater than 1020 nM; in assay [4], 911 nM; in assay [5], greater than 1020 nM; in [6] it was 958 nM. The same compound came in with an IC50 in [7] of 313 nM.

Usually IC50 stands for the point on the concentration scale where inhibition reaches its midpoint. Low values mean greater potency in that assay, high ones weaker potency in that assay.
